According to the NIST ThermoML archive (doi:10.1016/j.tca.2008.12.007):

Assay: xn = mol fraction of the nth substance listed
Conditions: 101 kPa, Liquid, Vibrating tube method

C1CCCNCC1 [azacycloheptane] + O
mass density [kg/m3]
Conditions | 313.15 K | 318.15 K | 323.15 K | 333.15 K | 343.15 K | 348.15 K | 353.15 K
x2 = 0.0199 | – | 860.37 | 855.9 | 846.92 | 837.91 | 833.38 | 828.84
x2 = 0.0395 | – | 861.39 | 856.9 | 847.9 | 838.84 | 834.3 | 829.73
x2 = 0.0821 | – | 863.99 | 859.48 | 850.41 | 841.28 | 836.69 | 832.07
x2 = 0.1198 | – | 866.23 | 861.7 | 852.59 | 843.4 | 838.79 | 834.14
x2 = 0.1594 | – | 868.63 | 864.08 | 854.93 | 845.7 | 841.06 | 836.38
x2 = 0.1994 | – | 871.37 | 866.81 | 857.62 | 848.34 | 843.67 | 838.95
x2 = 0.2498 | – | 874.79 | 870.21 | 860.98 | 851.65 | 846.94 | 842.2
x2 = 0.3 | 882.83 | 878.26 | 873.67 | 864.4 | 855.03 | 850.31 | 845.54
x2 = 0.3499 | 886.76 | 882.18 | 877.58 | 868.28 | 858.87 | 854.12 | 849.32
x2 = 0.4 | 890.72 | 886.14 | 881.52 | 872.21 | 862.76 | 857.99 | 853.18
x2 = 0.4529 | 895.39 | 890.8 | 886.19 | 876.87 | 867.39 | 862.6 | 857.76
x2 = 0.5008 | 899.86 | 895.29 | 890.68 | 881.36 | 871.87 | 867.08 | 862.24
x2 = 0.5041 | 899.86 | 895.28 | 890.68 | 881.35 | 871.87 | 867.07 | 862.22
x2 = 0.5508 | 904.48 | 899.93 | 895.33 | 886.03 | 876.55 | 871.76 | 866.92
x2 = 0.5992 | 909.37 | 904.85 | 900.28 | 891.02 | 881.58 | 876.78 | 871.95
x2 = 0.65 | 915.05 | 910.58 | 906.06 | 896.87 | 887.5 | 882.74 | 877.92
x2 = 0.699 | 920.96 | 916.55 | 912.1 | 903.03 | 893.76 | 889.04 | 884.27
x2 = 0.7496 | 927.77 | 923.47 | 919.11 | 910.24 | 901.13 | 896.49 | 891.79
x2 = 0.7994 | 935.59 | 931.44 | 927.23 | 918.61 | 909.74 | 905.21 | 900.62
x2 = 0.8398 | 942.92 | 938.93 | 934.88 | 926.57 | 917.97 | 913.57 | 909.09
x2 = 0.8799 | 951.63 | 947.87 | 944.03 | 936.13 | 927.91 | 923.42 | 918.78
x2 = 0.92 | 962.53 | 959.11 | 955.59 | 948.28 | 942.9 | 938.07 | 933.73
x2 = 0.9599 | 976.48 | 973.55 | 970.5 | 964.06 | 958.32 | 954.48 | –
x2 = 0.96 | 976.54 | 973.61 | 970.56 | 964.12 | 958.4 | 954.96 | –
x2 = 0.9699 | 980.66 | 977.9 | 975.01 | 968.88 | 963.25 | – | –
x2 = 0.98 | 985.06 | 982.5 | 979.8 | 974.02 | 967.74 | 964.39 | 961.1
